Test results taken from publication PMC10669656, “ADMET and Solubility Analysis of New 5-Nitroisatine-Based Inhibitors of CDK2 Enzymes” (Biomedicines, 2023).
≈ marks a conversion by molar mass, not a printed value. Where “and” joins values, the source holds several entries; their conditions need not be identical. Identical values can stand only once.

How the values were obtained:
Type in all cases: physicochemical
[1] = Solubility in NMP-water binary mixtures; conditions: for solubility at 24 h: thermodynamic from solid
Protocol: (§1) The calibration curves for each derivative were obtained using successful dilutions of initial stock solutions followed by spectrophotometric measurements of the obtained solutions with decreasing concentration. The concentration ranges for the derivatives 1, 2, and 3 were 0.0081–0.0405 mg/mL, 0.0077–0.0385 mg/mL, and 0.0068–0.017 mg/mL, respectively. Methanol was used both as a solvent, as well as a reference for spectrophotometric measurements. […] The A360 spectrophotometer from AOE Instruments was used for the preparation of the calibration curves. […] Three calibration curves were prepared for each derivative and then averaged.
(§2) A multi-step procedure was employed in order to find the solubility of the studied derivatives in the selected solvents. First of all, the excess amount of the considered compound was added to test tubes containing either neat solvents or their mixtures with water in different proportions, thus forming binary solvents. Saturated solutions were obtained in this way, placed in a Shaker Incubator ES-20/60 from Biosan, and incubated for 24 h at 298.1 K. The temperature adjustment was possible with a 0.1-degree accuracy, and the variance within a 24 h cycle was 0.5 degrees. The samples were simultaneously mixed at 60 rev/min. After incubation, the samples were filtered with the help of plastic syringes equipped with PTFE filters with 0.22 µm pore size. The obtained filtrates were diluted with methanol in another set of test tubes. In order to determine the mole fractions of a solute in the solution, 1 mL of the filtered samples was weighed in 10 mL volumetric flasks using a RADWAG AS 110 R2.PLUS analytical balance. The samples diluted with methanol were measured spectrophotometrically using the same instrument as was used in the case of calibration curves. The spectra were recorded in the wavelength range of 190–500 nm, and the resolution was 1 nm. Methanol was used if further dilution of the sample was required, and it was also used as a reference for calibrating the spectrophotometer. The absorbance values at 315 nm, 321 nm, and 321 nm were taken into account for derivatives 1, 2, and 3, respectively. Based on the calibration curves, the concentration of the solute in the samples was determined together with its mole fraction. Three separate measurements were conducted, and the final values are the results of averaging them.

[2] = Solubility in DMSO-water binary mixtures; conditions: for solubility at 24 h: 25 °C, thermodynamic from solid
Protocol: as §1, §2

[3] = Solubility in neat solvents, shake-flask with spectrophotometric determination; conditions: for solubility at 24 h: 25 °C, organic solvent or mixture, thermodynamic from solid
Protocol: as §1, §2

[4] = neat γ-nonanoic lactone, 298.1 K

- solubility at 24 h ([1]; NMP-water binary mixture, x*NMP 0.1, 25 °C, aqueous with cosolvent or surfactant or cyclodextrin, x*NMP 0.1, 298.1 K): 5750 µg/mL (≈ 17.7 mM)
- solubility at 24 h ([1]; NMP-water binary mixture, x*NMP 0.2, 25 °C, aqueous with cosolvent or surfactant or cyclodextrin, x*NMP 0.2, 298.1 K): 12100 µg/mL (≈ 37.2 mM)
- solubility at 24 h ([1]; NMP-water binary mixture, x*NMP 0.3, 25 °C, aqueous with cosolvent or surfactant or cyclodextrin, x*NMP 0.3, 298.1 K): 18200 µg/mL (≈ 56 mM)
- solubility at 24 h ([1]; NMP-water binary mixture, x*NMP 0.4, 25 °C, aqueous with cosolvent or surfactant or cyclodextrin, x*NMP 0.4, 298.1 K): 23300 µg/mL (≈ 71.6 mM)
- solubility at 24 h ([1]; NMP-water binary mixture, x*NMP 0.7, 25 °C, aqueous with cosolvent or surfactant or cyclodextrin, x*NMP 0.7, 298.1 K): 34500 µg/mL (≈ 106 mM)
- solubility at 24 h ([1]; NMP-water binary mixture, x*NMP 0.8, 25 °C, aqueous with cosolvent or surfactant or cyclodextrin, x*NMP 0.8, 298.1 K): 35900 µg/mL (≈ 110 mM)
- solubility at 24 h ([1]; NMP-water binary mixture, x*NMP 0.9, 25 °C, aqueous with cosolvent or surfactant or cyclodextrin, x*NMP 0.9, 298.1 K): 34900 µg/mL (≈ 107 mM)
- solubility at 24 h ([1]; NMP-water binary solvent, 25 °C, aqueous with cosolvent or surfactant or cyclodextrin, x*NMP 0.5, 298.1 K): 29500 µg/mL (≈ 90.7 mM)
- solubility at 24 h ([1]; NMP-water binary solvent, 25 °C, aqueous with cosolvent or surfactant or cyclodextrin, x*NMP 0.6, 298.1 K): 33000 µg/mL (≈ 101 mM)
- solubility at 24 h ([1]; NMP-water series, x*NMP 1.0, 25 °C, organic solvent or mixture, x*NMP 1.0, 298.1 K): 32700 µg/mL (≈ 101 mM)
- solubility x ([1]; x*NMP 0.1, 298.1 K): 4.43 (0.05) × 10^−4 mole fraction
- solubility x ([1]; x*NMP 0.2, 298.1 K): 1.23 (0.01) × 10^−3 mole fraction
- solubility x ([1]; x*NMP 0.3, 298.1 K): 2.32 (0.03) × 10^−3 mole fraction
- solubility x ([1]; x*NMP 0.4, 298.1 K): 3.53 (0.04) × 10^−3 mole fraction
- solubility x ([1]; x*NMP 0.5, 298.1 K): 5.24 (0.06) × 10^−3 mole fraction
- solubility x ([1]; x*NMP 0.6, 298.1 K): 6.71 (0.08) × 10^−3 mole fraction
- solubility x ([1]; x*NMP 0.7, 298.1 K): 7.95 (0.08) × 10^−3 mole fraction
- solubility x ([1]; x*NMP 0.8, 298.1 K): 8.96 (0.09) × 10^−3 mole fraction
- solubility x ([1]; x*NMP 0.9, 298.1 K): 9.53 (0.11) × 10^−3 mole fraction
- solubility x ([1]; x*NMP 1.0, 298.1 K): 9.80 (0.13) × 10^−3 mole fraction
- solubility at 24 h ([2]; DMSO-water binary mixture, aqueous with cosolvent or surfactant or cyclodextrin, x*DMSO 0.1, 298.1 K): 3220 µg/mL (≈ 9.9 mM)
- solubility at 24 h ([2]; DMSO-water binary mixture, aqueous with cosolvent or surfactant or cyclodextrin, x*DMSO 0.2, 298.1 K): 6950 µg/mL (≈ 21.4 mM)
- solubility at 24 h ([2]; DMSO-water binary mixture, aqueous with cosolvent or surfactant or cyclodextrin, x*DMSO 0.3, 298.1 K): 10800 µg/mL (≈ 33.2 mM)
- solubility at 24 h ([2]; DMSO-water binary mixture, aqueous with cosolvent or surfactant or cyclodextrin, x*DMSO 0.4, 298.1 K): 14300 µg/mL (≈ 44 mM)
- solubility at 24 h ([2]; DMSO-water binary mixture, aqueous with cosolvent or surfactant or cyclodextrin, x*DMSO 0.5, 298.1 K): 18400 µg/mL (≈ 56.6 mM)
- solubility at 24 h ([2]; DMSO-water binary mixture, aqueous with cosolvent or surfactant or cyclodextrin, x*DMSO 0.6, 298.1 K): 21000 µg/mL (≈ 64.6 mM)
- solubility at 24 h ([2]; DMSO-water binary mixture, aqueous with cosolvent or surfactant or cyclodextrin, x*DMSO 0.7, 298.1 K): 24100 µg/mL (≈ 74.1 mM)
- solubility at 24 h ([2]; DMSO-water binary mixture, aqueous with cosolvent or surfactant or cyclodextrin, x*DMSO 0.8, 298.1 K): 25400 µg/mL (≈ 78.1 mM)
- solubility at 24 h ([2]; DMSO-water binary mixture, aqueous with cosolvent or surfactant or cyclodextrin, x*DMSO 0.9, 298.1 K): 24100 µg/mL (≈ 74.1 mM)
- solubility at 24 h ([2]; DMSO-water series, organic solvent or mixture, x*DMSO 1.0, 298.1 K): 21400 µg/mL (≈ 65.8 mM)
- solubility x ([2]; x*DMSO 0.1, 298.1 K): 2.11 (0.02) × 10^−4 mole fraction
- solubility x ([2]; x*DMSO 0.2, 298.1 K): 5.76 (0.06) × 10^−4 mole fraction
- solubility x ([2]; x*DMSO 0.3, 298.1 K): 1.08 (0.01) × 10^−3 mole fraction
- solubility x ([2]; x*DMSO 0.4, 298.1 K): 1.69 (0.02) × 10^−3 mole fraction
- solubility x ([2]; x*DMSO 0.5, 298.1 K): 2.46 (0.02) × 10^−3 mole fraction
- solubility x ([2]; x*DMSO 0.6, 298.1 K): 3.18 (0.03) × 10^−3 mole fraction
- solubility x ([2]; x*DMSO 0.7, 298.1 K): 4.01 (0.05) × 10^−3 mole fraction
- solubility x ([2]; x*DMSO 0.8, 298.1 K): 4.68 (0.03) × 10^−3 mole fraction
- solubility x ([2]; x*DMSO 0.9, 298.1 K): 4.86 (0.08) × 10^−3 mole fraction
- solubility x ([2]; x*DMSO 1.0, 298.1 K): 4.63 (0.14) × 10^−3 mole fraction
- solubility at 24 h ([3]; neat DMF, 298.1 K): 15300 µg/mL (≈ 47 mM)
- solubility at 24 h ([3]; neat DMP, 298.1 K): 290 µg/mL (≈ 0.892 mM)
- solubility at 24 h ([3]; neat DMSO, 298.1 K): 21400 µg/mL (≈ 65.8 mM)
- solubility at 24 h ([3]; neat NMP, 298.1 K): 32700 µg/mL (≈ 101 mM)
- solubility at 24 h ([3]; neat acetone, 298.1 K): 900 µg/mL (≈ 2.77 mM)
- solubility at 24 h ([3]; neat acetonitrile, 298.1 K): 610 µg/mL (≈ 1.88 mM)
- solubility at 24 h ([3]; neat cyrene, 298.1 K): 750 µg/mL (≈ 2.31 mM)
- solubility at 24 h ([3]; neat diglyme, 298.1 K): 1190 µg/mL (≈ 3.66 mM)
- solubility at 24 h ([3]; neat dioxane, 298.1 K): 960 µg/mL (≈ 2.95 mM)
- solubility at 24 h ([3]; neat ethyl lactate, 298.1 K): 560 µg/mL (≈ 1.72 mM)
- solubility at 24 h ([3]; neat methanol, 298.1 K): 310 µg/mL (≈ 0.953 mM)
- solubility at 24 h ([3]; neat tetraglyme, 298.1 K): 1790 µg/mL (≈ 5.5 mM)
- solubility at 24 h ([3]; neat triglyme, 298.1 K): 420 µg/mL (≈ 1.29 mM)
- solubility at 24 h ([3]; neat γ-heptalactone, 298.1 K): 1090 µg/mL (≈ 3.35 mM)
- solubility at 24 h [3, 4]: 710 µg/mL (≈ 2.18 mM)
- solubility at 24 h ([3]; neat 1-butanol): 70 µg/mL (≈ 0.215 mM)
- solubility x ([3]; neat 1-butanol, 298.1 K): 0.21 (0.01) × 10^−4 mole fraction
- solubility at 24 h ([3]; neat 1-propanol): 100 µg/mL (≈ 0.307 mM)
- solubility x ([3]; neat 1-propanol, 298.1 K): 0.23 (0.01) × 10^−4 mole fraction
- solubility at 24 h ([3]; neat 4FM): 3470 µg/mL (≈ 10.7 mM)
- solubility x ([3]; neat 4FM, 298.1 K): 1.06 (0.04) × 10^−3 mole fraction
- solubility x ([3]; neat DMP, 298.1 K): 1.05 (0.03) × 10^−4 mole fraction
- solubility x ([3]; neat acetonitrile, 298.1 K): 0.96 (0.03) × 10^−4 mole fraction
- solubility x ([3]; neat cyrene, 298.1 K): 2.36 (0.04) × 10^−4 mole fraction
- solubility x ([3]; neat diglyme, 298.1 K): 5.22 (0.10) × 10^−4 mole fraction
- solubility x ([3]; neat dioxane, 298.1 K): 2.49 (0.05) × 10^−4 mole fraction
- solubility at 24 h ([3]; neat ethanol): 150 µg/mL (≈ 0.461 mM)
- solubility x ([3]; neat ethanol, 298.1 K): 0.26 (0.01) × 10^−4 mole fraction
- solubility x ([3]; neat ethyl lactate, 298.1 K): 1.95 (0.04) × 10^−4 mole fraction
- solubility x ([3]; neat methanol, 298.1 K): 0.39 (0.01) × 10^−4 mole fraction
- solubility x ([3]; neat tetraglyme, 298.1 K): 1.20 (0.02) × 10^−3 mole fraction
- solubility x ([3]; neat triglyme, 298.1 K): 2.34 (0.06) × 10^−4 mole fraction
- solubility x ([3]; neat γ-heptalactone, 298.1 K): 4.25 (0.06) × 10^−4 mole fraction
- solubility x [3, 4]: 3.46 (0.07) × 10^−4 mole fraction
- solubility at 24 h ([3]; neat ε-caprolactone): 1010 µg/mL (≈ 3.1 mM)
- solubility x ([3]; neat ε-caprolactone, 298.1 K): 3.25 (0.09) × 10^−4 mole fraction
SMILES: Nc1cccc(C(=O)NN=C2C(=O)Nc3ccc([N+](=O)[O-])cc32)c1 [derivative 2, 3-Amino-N′-[5-nitro-2-oxo-1,2-dihydro-3H-indol-3-ylidene]benzohydrazide]
- solubility x ([3]; neat DMF, 298.1 K): 3.66 × 10^−3 mole fraction and 3.66 (0.06) × 10^−3 mole fraction
- solubility x ([3]; neat DMSO, 298.1 K): 4.63 × 10^−3 mole fraction and 4.63 (0.14) × 10^−3 mole fraction
- solubility x ([3]; neat NMP, 298.1 K): 9.80 × 10^−3 mole fraction and 9.80 (0.13) × 10^−3 mole fraction
